Assay results as given in EPA's ToxRefDB 2.

Key:
rat [1] = conditions: Prenatal developmental toxicity study, sprague dawley, Oral, Gavage/Intubation, dose end: 19 GD
rat [2] = conditions: Combined chronic toxicity/carcinogenicity, fischer, Oral, Gavage/Intubation, dose end: 104 week, group: systemic
mouse [3] = conditions: Combined chronic toxicity/carcinogenicity, b6c3f1, Oral, Gavage/Intubation, dose end: 104 week, group: systemic
mouse [4] = conditions: Subchronic oral toxicity in rodents, b6c3f1, Gavage/Intubation, dose end: 14 week, group: systemic
mouse [5] = conditions: Multigenerational reproductive toxicity study, cd1, Oral, Water, dose end: 2 generation
rabbit = conditions: Prenatal developmental toxicity study, new zealand white, Oral, Gavage/Intubation, dose end: 29 GD
rat [6] = conditions: Subchronic oral toxicity in rodents, fischer, Gavage/Intubation, dose end: 14 week, group: systemic
[7] = group: developmental, developmental / developmental malformation / bone / unossified + systemic / in life observation / body weight / fetal weight
[8] = group: maternal, systemic / in life observation / body weight / body weight + systemic / in life observation / body weight / body weight gain + systemic / …
[9] = systemic / in life observation / body weight / body weight
[10] = systemic / in life observation / body weight / body weight + systemic / pathology microscopic / pancreas / atrophy
[11] = systemic / pathology microscopic / pancreas / hyperplasia
[12] = systemic / pathology microscopic / pancreas / hyperplasia + systemic / pathology microscopic / pancreas / inflammation + systemic / …
[13] = group: offspring, systemic / in life observation / body weight / offspring (pup) weight + systemic / in life observation / food consumption / food consumption…
[14] = group: parental, systemic / in life observation / body weight / body weight + systemic / organ weight / ovary / relative to body weight + systemic / organ …
[15] = group: parental, systemic / in life observation / water consumption / water consumption
[16] = group: reproductive, reproductive / offspring survival early / litter size / litter size + reproductive / reproductive performance / estrous cycle / length + …
[17] = group: developmental, systemic / in life observation / body weight / fetal weight
[18] = group: maternal, reproductive / reproductive performance / aborted / aborted + systemic / in life observation / body weight / body weight + systemic / in …
[19] = systemic / in life observation / body weight / body weight + systemic / in life observation / body weight / body weight gain + systemic / …

With `NC=O` [Formamide] the LEL (rat [1]; [7]) was 100 mg/kg/day, the LOAEL (rat [1]; [7]) was over 200 mg/kg/day and the NEL (rat [1]; [7]) was 50 mg/kg/day. For the same compound, the NOAEL (rat [1]; [7]) was at least 200 mg/kg/day, the LEL (rat [1]; [8]) was 200 mg/kg/day and the LOAEL (rat [1]; [8]) was over 200 mg/kg/day. For the same compound, the NEL (rat [1]; [8]) was 100 mg/kg/day, the NOAEL (rat [1]; [8]) was at least 200 mg/kg/day and the LEL (rat [2]; [9]) was 40 mg/kg/day. It also gave an LOAEL (rat [2]; [9]) of 80 mg/kg/day, an NEL (rat [2]; [10]) of 20 mg/kg/day and an NOAEL (rat [2]; [10]) of 40 mg/kg/day. It also gave an LOAEL (mouse [3]; [9]) of 80 mg/kg/day, an NOAEL (mouse [3]; systemic / in life observation / body weight / body weight + systemic / pathology microscopic / liver / adenoma/carcinoma combined + …) of 40 mg/kg/day and an LEL (mouse [3]; [11]) of 20 mg/kg/day. The NEL (mouse [3]; [11]) was under 20 mg/kg/day, the LEL (mouse [4]; systemic / in life observation / body weight / body weight gain + systemic / hematology / platelet / platelet) was 40 mg/kg/day and the LOAEL (mouse [4]; systemic / pathology microscopic / pancreas / hyperplasia + systemic / pathology microscopic / pancreas / inflammation + systemic / in life …) was 80 mg/kg/day. It also gave an NEL (mouse [4]; [12]) of 20 mg/kg/day, an NOAEL (mouse [4]; [12]) of 40 mg/kg/day and an LOAEL (mouse [5]; [13]) of over 190 mg/kg/day. For the same compound, the NEL (mouse [5]; [13]) was 26 mg/kg/day, the NOAEL (mouse [5]; [13]) was at least 190 mg/kg/day and the LEL (mouse [5]; group: offspring, systemic / in life observation / food consumption / food consumption) was 87 mg/kg/day. For the same compound, the LOAEL (mouse [5]; [14]) was over 190 mg/kg/day, the NOAEL (mouse [5]; [14]) was at least 190 mg/kg/day and the LEL (mouse [5]; [15]) was 24 mg/kg/day. It also gave an NEL (mouse [5]; [15]) of under 24 mg/kg/day, an LEL (mouse [5]; [16]) of 190 mg/kg/day and an LOAEL (mouse [5]; [16]) of over 190 mg/kg/day. For the same compound, the NEL (mouse [5]; [16]) was 87 mg/kg/day, the NOAEL (mouse [5]; [16]) was at least 190 mg/kg/day and the LEL (rabbit; [17]) was 140 mg/kg/day. For the same compound, the LOAEL (rabbit; [17]) was over 140 mg/kg/day, the NEL (rabbit; [17]) was 70 mg/kg/day and the NOAEL (rabbit; [17]) was at least 140 mg/kg/day. For the same compound, the LEL (rabbit; [18]) was 140 mg/kg/day, the LOAEL (rabbit; [18]) was over 140 mg/kg/day and the NEL (rabbit; [18]) was 70 mg/kg/day. For the same compound, the NOAEL (rabbit; [18]) was at least 140 mg/kg/day, the LEL (rat [6]; systemic / in life observation / body weight / body weight + systemic / hematology / [other] / [other] + systemic / hematology / erythrocyte…) was 40 mg/kg/day and the LOAEL (rat [6]; systemic / in life observation / body weight / body weight + systemic / in life observation / body weight / body weight gain) was 80 mg/kg/day. It also gave an NEL (rat [6]; [19]) of 20 mg/kg/day and an NOAEL (rat [6]; [19]) of 40 mg/kg/day.
